# Results reported in publication PMC10320005, “In Campylobacter jejuni, a new type of chaperone receives heme from ferrochelatase” (Frontiers in Genetics, 2023).
# Columns and labels:
# CgdH1 (Cj0992c) = biological target: T1, CgdH1 (Cj0992c) (Campylobacter jejuni, UniProt Q0P9R0); assay: HPLC-MS of porphyrin products; type: biochemical; settings: 10 µM copro'gen III, 1 mM SAM, 0.5 mM NADH, E. coli cell extract added, anaerobic, overnight, room temperature; incomplete reaction via harderoporphyrin intermediate
# T1 construct: full length (451 residues), C-terminal His-tag (pET-23b), E. coli BL21STAR(DE3)pLysS; Fe-S cluster reconstituted
# T1 sequence (Q0P9R0 1-451): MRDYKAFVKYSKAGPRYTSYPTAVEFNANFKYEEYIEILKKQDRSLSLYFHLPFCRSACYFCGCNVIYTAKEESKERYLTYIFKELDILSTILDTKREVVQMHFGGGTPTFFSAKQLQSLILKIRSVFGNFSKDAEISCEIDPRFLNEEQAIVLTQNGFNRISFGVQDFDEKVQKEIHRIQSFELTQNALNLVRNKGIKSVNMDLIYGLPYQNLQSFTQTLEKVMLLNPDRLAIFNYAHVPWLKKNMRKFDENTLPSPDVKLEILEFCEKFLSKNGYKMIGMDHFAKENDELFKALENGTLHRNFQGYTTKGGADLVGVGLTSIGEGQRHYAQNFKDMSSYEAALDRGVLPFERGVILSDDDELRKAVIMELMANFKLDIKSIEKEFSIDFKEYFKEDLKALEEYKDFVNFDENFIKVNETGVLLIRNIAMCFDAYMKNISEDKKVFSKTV
# CgdH2 (Cj0363c) = biological target: T2, CgdH2 (Cj0363c) (Campylobacter jejuni, UniProt Q0PBE7); assay: UV-visible titration of apo-protein, absorbance difference at […] nm; type: binding
# T2 construct: gene hemN; full length (448 residues; 447 aa in Discussion), C-terminal His-tag (pET-23b), E. coli BL21STAR(DE3)pLysS; apo-form without Fe-S cluster
# T2 sequence (Q0PBE7 1-448): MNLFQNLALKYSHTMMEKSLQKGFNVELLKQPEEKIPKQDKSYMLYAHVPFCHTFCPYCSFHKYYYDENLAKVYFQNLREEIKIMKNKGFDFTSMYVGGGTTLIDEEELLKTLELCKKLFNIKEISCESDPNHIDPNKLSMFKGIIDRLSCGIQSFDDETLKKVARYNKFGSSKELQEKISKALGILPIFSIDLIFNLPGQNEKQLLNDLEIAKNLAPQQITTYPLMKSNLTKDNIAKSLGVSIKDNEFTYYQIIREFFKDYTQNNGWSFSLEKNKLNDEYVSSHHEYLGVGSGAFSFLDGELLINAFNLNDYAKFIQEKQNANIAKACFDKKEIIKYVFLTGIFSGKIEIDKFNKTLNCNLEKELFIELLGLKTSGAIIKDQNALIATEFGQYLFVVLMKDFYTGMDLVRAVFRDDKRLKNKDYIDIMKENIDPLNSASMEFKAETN
# PgdH2 (Cj0362) = biological target: T3, PgdH2 (Cj0362) (Campylobacter jejuni, UniProt Q0PBE8); assay: fluorescence of protoporphyrin IX ([…] nm) with E. coli membrane fraction versus empty plasmid; type: biochemical; settings: 500 nM proto'gen IX, 150 mM NaCl, 20% glycerol, 5 mM DTT, Tris-HCl pH 8, aerobic
# T3 construct: expressed from pPR-IBA2 (Strep-tag vector) in E. coli BL21STAR(DE3)pLysS; membrane fraction, not purified
# T3 sequence (Q0PBE8 1-150): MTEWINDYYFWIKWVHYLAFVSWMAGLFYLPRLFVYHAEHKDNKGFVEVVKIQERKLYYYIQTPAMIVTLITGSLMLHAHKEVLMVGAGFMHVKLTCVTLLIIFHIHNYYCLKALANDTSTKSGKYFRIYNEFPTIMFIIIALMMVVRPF
# PpfC (Cj0503c) = biological target: T4, PpfC (Cj0503c) (Campylobacter jejuni, UniProt Q9PI08); assay: ferrochelatase activity, decrease of protoporphyrin IX at […] nm; type: biochemical; settings: 10 µM protoporphyrin IX, 20 µM (NH4)2Fe(SO4)2, 5 mM DTT, 150 mM NaCl, 20% glycerol, Tris-HCl pH 8, anaerobic, room temperature
# T4 construct: gene hemH; N-terminal Strep-tag (pPR-IBA2), E. coli BL21STAR(DE3)pLysS, solubilised with Triton X-100
# T4 sequence (Q9PI08 1-303): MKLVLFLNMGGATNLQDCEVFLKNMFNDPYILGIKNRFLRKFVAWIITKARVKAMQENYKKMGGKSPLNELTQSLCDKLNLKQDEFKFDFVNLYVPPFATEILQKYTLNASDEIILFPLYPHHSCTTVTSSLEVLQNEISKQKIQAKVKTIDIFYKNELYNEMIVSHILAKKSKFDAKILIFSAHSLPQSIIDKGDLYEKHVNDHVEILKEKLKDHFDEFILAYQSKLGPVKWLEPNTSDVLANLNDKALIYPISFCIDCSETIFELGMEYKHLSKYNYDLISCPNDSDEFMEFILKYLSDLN
# UroD (Cj1243) = biological target: T5, UroD (Cj1243) (Campylobacter jejuni, UniProt Q9PN54); assay: linked assay, UV-visible spectroscopy and HPLC-MS of coproporphyrin III; type: biochemical; settings: uro'gen III made in situ from porphobilinogen with D. vulgaris PbgS and UroS; Tris-HCl pH 8, anaerobic, overnight
# T5 construct: gene hemE; N-terminal Strep-tag (pPR-IBA2), E. coli BL21STAR(DE3)pLysS
# T5 sequence (Q9PN54 1-340): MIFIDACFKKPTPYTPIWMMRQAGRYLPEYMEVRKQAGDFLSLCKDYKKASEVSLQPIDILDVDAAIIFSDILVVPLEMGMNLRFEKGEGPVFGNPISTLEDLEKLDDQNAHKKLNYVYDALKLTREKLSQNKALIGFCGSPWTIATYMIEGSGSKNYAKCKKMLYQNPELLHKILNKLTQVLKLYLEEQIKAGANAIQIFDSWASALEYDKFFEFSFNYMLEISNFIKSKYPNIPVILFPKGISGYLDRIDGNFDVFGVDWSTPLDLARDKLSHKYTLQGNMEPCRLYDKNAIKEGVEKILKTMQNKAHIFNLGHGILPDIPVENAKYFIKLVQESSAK
smiles,measurement,setting,value
Cc1c2[nH]c(c1CCC(=O)O)Cc1[nH]c(c(CCC(=O)O)c1C)Cc1[nH]c(c(CCC(=O)O)c1C)Cc1[nH]c(c(C)c1CCC(=O)O)C2 [copro'gen III],HPLC-MS of porphyrin products,CgdH1 (Cj0992c),"The expected final reactional product, protoporphyrin IX (the oxidized form of proto'gen IX), was observed"
C=CC1=C(C)C2=Cc3c(C=C)c(C)c4[n]3[Fe]([Cl])[n]3c(c(C)c(CCC(=O)O)c3=CC3=NC(=C4)C(C)=C3CCC(=O)O)=CC1=N2 [hemin],Kd,CgdH2 (Cj0363c),4.9 ± 1 µM
C=Cc1c2[nH]c(c1C)Cc1[nH]c(c(CCC(=O)O)c1C)Cc1[nH]c(c(C)c1CCC(=O)O)Cc1[nH]c(c(C)c1C=C)C2 [proto'gen IX],fluorescence of protoporphyrin IX (390/630 nm) with E. coli membrane fraction ve,PgdH2 (Cj0362),Cells containing Cj0362 exhibited much higher activity for the oxidation of proto'gen IX
C=CC1=C(C)c2cc3[nH]c(cc4nc(cc5[nH]c(cc1n2)c(C)c5CCC(=O)O)C(CCC(=O)O)=C4C)c(C)c3C=C [protoporphyrin IX],"ferrochelatase activity, decrease of protoporphyrin IX at 408 nm",PpfC (Cj0503c),C. jejuni Cj0503c exhibits a ferrochelatase specific activity
O=C(O)CCc1c2[nH]c(c1CC(=O)O)Cc1[nH]c(c(CC(=O)O)c1CCC(=O)O)Cc1[nH]c(c(CC(=O)O)c1CCC(=O)O)Cc1[nH]c(c(CCC(=O)O)c1CC(=O)O)C2 [uro'gen III],"linked assay, UV-visible spectroscopy and HPLC-MS of coproporphyrin III",UroD (Cj1243),confirmed the formation of copro'gen III
